# According to US4599228A, “Antimicrobial agent” (Vipont Laboratories, Inc., priority 1984, dated 1986):
# “Also recorded” adds a separate entry of the source. Like-named read-outs stand apart in the source and are kept apart here.
# Experiments:
# fungi and protozoa = details: in solution; cited from earlier work
# infection = assay: In vivo antimicrobial action and tolerability (clinical studies)
# microorganisms = assay: General antimicrobial activity in vitro; type: cell-based
# Text: When zinc chloride was replaced with a fluoride salt in the present preparations, the activity of the preparation against microorganisms believed to be associated with the causation of dental caries and periodontal disease (Streptococcus mutans), as well as other microorganisms, remained identical.
# [1] = system: gingivitis, plaque and pocket depth in dogs; assay: Oral Clinical Studies - Beagles (dogs); type: in vivo, beagle dogs; design: Mean Gingivitis Scores / Mean Plaque Scores: scale not given here; details: for Mean Gingivitis Scores / Mean Plaque Scores / Mean Pocket Depths / gingivitis, activity in words / return of dental plaque, activity in words: beagles; for Mean Gingivitis Scores / Mean Plaque Scores / Mean Pocket Depths: 0.1% sanguinarine chloride and/or 2.7% zinc chloride; for gingivitis, activity in words / return of dental plaque, activity in words: four weeks of treatment
# Method: The dogs were treated topically once daily with the respective test formulation.
# Escherichia coli [2] = assay: Mean inactivating dose in vitro; type: cell-based; details: per ml of media
# Method: (§1) In order to illustrate the antimicrobial effectiveness of the composition according to the present invention, a series of in vitro and in vivo tests were performed.
# Staphylococcus aureus [3] = assay: Mean inactivating dose in vitro; type: cell-based; details: per ml of media
# Method: as §1
# Streptococcus mutans [4] = assay: Mean inactivating dose in vitro; type: cell-based; details: per ml of media
# Method: as §1
# Bacillus subtilis = assay: Mean inactivating dose in vitro; type: cell-based; details: per ml of media
# Method: as §1
# Klebsiella pneumoniae = assay: Mean inactivating dose in vitro; type: cell-based; details: per ml of media
# Method: as §1
# Proteus vulgaris = assay: Mean inactivating dose in vitro; type: cell-based; details: per ml of media
# Method: as §1
# Pseudomonas aeruginosa = assay: Mean inactivating dose in vitro; type: cell-based; details: per ml of media
# Method: as §1
# Streptococcus faecalis = assay: Mean inactivating dose in vitro; type: cell-based; details: per ml of media
# Method: as §1
# Saccharomyces cerevisiae = assay: Mean inactivating dose in vitro; type: cell-based; details: per ml of media
# Method: as §1
# [5] = system: plaque forming microorganisms freshly collected from human dental plaque; assay: Dental plaque reduction in vitro; type: cell-based
# Escherichia coli [6] = assay: Inhibitory concentration in vitro, separate test; type: cell-based
# Method: (§2) A separate test was conducted to determine the inhibitory concentration of sanguinarine chloride alone. These concentrations, for microorganisms in vitro, are as follows: […]
# Staphylococcus aureus [7] = assay: Inhibitory concentration in vitro, separate test; type: cell-based
# Method: as §2
# Streptococcus mutans [8] = assay: Inhibitory concentration in vitro, separate test; type: cell-based
# Method: as §2
# Candida albicans = assay: Inhibitory concentration in vitro, separate test; type: cell-based
# Method: as §2
# [9] = system: dental plaque / plaque forming microorganisms; assay: In vivo plaque, gingivitis and periodontal disease treatment of dogs and humans
# [10] = 0 (start), baseline, topical once daily
# [11] = after 4 weeks, topical once daily, untreated 0.91
# [12] = after 4 weeks, topical once daily, untreated 1.458
# [13] = after 4 weeks, topical once daily, untreated 12.408
smiles,measurement,setting,value
C[n+]1cc2c3c(ccc2c2ccc4cc5c(cc4c21)OCO5)OCO3 [sanguinarine],antifungal and antiprotozoan properties,fungi and protozoa,some antifungal and antiprotozoan properties
"[Cl-].[Cl-].[Zn+2] [Zinc chloride, zinc chloride, reference compound]",speed of action in vivo,infection,slow acting in vivo as an antimicrobial agent
same,tissue damage / undesirable side effects,infection; concentrations required for antimicrobial action,"caused blanching of tissue and, in some cases, chemical burns and other tissue damage"
same,antimicrobial properties,microorganisms,antimicrobial properties only in high concentrations
same,Mean Gingivitis Scores,[1]; [10],0.44
same,Mean Plaque Scores,[1]; [10],8.76
same,Mean Pocket Depths,[1]; [10],1.46
same,Mean Gingivitis Scores,[1]; [11],0.75
same,Mean Pocket Depths,[1]; [12],1.37
same,Mean Plaque Scores,[1]; [13],10.15
same,"gingivitis, activity in words",[1],slightly active
same,"return of dental plaque, activity in words",[1],slightly preventive
same,Mean inactivating dose,Escherichia coli [2],"6,250 μg/ml"
same,Mean inactivating dose,Staphylococcus aureus [3],"6,250 μg/ml"
same,Mean inactivating dose,Streptococcus mutans [4],"1,563 μg/ml"
same,Mean inactivating dose,Bacillus subtilis,"25,000 μg/ml"
same,Mean inactivating dose,Klebsiella pneumoniae,"3,125 μg/ml"
same,Mean inactivating dose,Proteus vulgaris,"12,500 μg/ml"
same,Mean inactivating dose,Pseudomonas aeruginosa,"3,500 μg/ml"
same,Mean inactivating dose,Streptococcus faecalis,"25,000 μg/ml"
same,Mean inactivating dose,Saccharomyces cerevisiae,"6,250 μg/ml"
"C[n+]1cc2c3c(ccc2c2ccc4cc5c(cc4c21)OCO5)OCO3 [Sanguinarine chloride, sanguinarine chloride]","comparison with chlorhexidine (Hibitane), inhibition of plaque forming microorganisms",[5],compared favorably in vitro to chlorhexidine
same,reduction of dental plaque,[5]; 25 micrograms per milliliter,100%
same,in vivo effectiveness / antimicrobial action,infection,"only slightly effective or not at all; also recorded: only slightly antimicrobial, very slow acting, or had no effect on the course of the infection at all"
same,antimicrobial properties,microorganisms,strong antimicrobial properties
same,antimicrobial properties,microorganisms; listed as sanguinarine chloride,quite effective against microorganisms
same,MIC,Escherichia coli [6],100 µg/mL
same,MIC,Staphylococcus aureus [7],10 µg/mL
same,MIC,Streptococcus mutans [8],50 µg/mL
same,MIC,Candida albicans,100 µg/mL
same,Mean Gingivitis Scores,[1]; [10],0.495
same,Mean Plaque Scores,[1]; [10],8.885
same,Mean Pocket Depths,[1]; [10],1.415
same,"plaque and gingivitis scores, rank among groups","[1]; 24 male beagle dogs, after four weeks, topical once daily",highest
same,Mean Gingivitis Scores,[1]; [11],0.942
same,Mean Pocket Depths,[1]; [12],1.48
same,Mean Plaque Scores,[1]; [13],12.89
same,"gingivitis, activity in words",[1],no activity in vivo at all
same,"return of dental plaque, activity in words",[1],not active in vivo
same,effect against plaque forming microorganisms in vivo,[9]; in vivo,ineffective against plaque forming microorganisms
same,"effect on dental plaque, gingivitis and periodontal disease","[9]; repeated or continuous treatment of affected area, dogs and humans",did not reduce dental plaque or alleviate the symptoms of gingivitis or periodontal disease; also recorded: did not prevent the accumulation of dental plaque on teeth or prevent the occurrence of periodontal disease
COc1ccc2c(c[n+](C)c3c4cc5c(cc4ccc23)OCO5)c1OC [chelerythrine chloride],antimicrobial properties,microorganisms,strong antimicrobial properties
